According to patent publication US4835185A, “Immunomodulator for improving commercial performance of domestic animals” (Iowa State University Research Foundation, Inc., priority 1987, dated 1989):

Assays:
[1] = set-up: species or system pigs; details: pig, in vivo
From the text: In experiment 1, sixteen female pigs weighing 20-30 kg were used. Seven days before study, catheters were surgically placed in the right atria for blood sampling. Animals were housed in individual cages during the recovery period and had free access to water. Preceding the experiment, animals were fed twice daily a basal diet (2% of body weight per feeding). The basal diet consisted of a corn-soybean mix, adequate in all minerals and vitamins and containing approximately 14% crude protein. Test meals were formulated by additions to a basal diet. Five animals received the basal diet (control); five animals received the leucine meal, which had 2% leucine added to the basal diet; and six animals received the KIC diet, which had 2% KIC (sodium salt equivalent to 1.7% free acid) added to the basel diet. Studies were begun between 0800 and 0900 h after a 24-hr fast. Basal blood samples were taken at -20, -10 and -5 min. Animals were then offered 100 g of their respective test meal (time 0). Pigs were included in the study only if they consumed the entire meal in the first 20 min. Blood was sampled every 30 min from 120 to 240 min. Plasma was separated, Trasylol (FBA Pharmaceuticals, New York, NY) added (50 ul/ml), and plasma stored at -70 C. until analyzed.
Cortisol was measured by coated tube kits (Gammacoat, Travenol-Genetech Diagnostics, Cambridge, MA). Leucine and KIC were measured by high pressure liquid chromatography. Crystalline leucine was obtained from Sigma Chemical (St. Louis, MO) and KIC-sodium was obtained from SOBAC (Paris, France). Statistical analysis of the individual pig responses was conducted on mean plasma concentrations before the meal (-20 to 0 min) and after the meal (120 to 240 min). When the overall treatment F-value was significant, differences between individual treatments were determined using the pooled SEM and a T-test.

[2] = Dairy Cattle Trial: nitrogen balance, milk production and composition; format: in vivo, Holstein and Brown Swiss cows (cattle)
From the text: Eight Holstein and four Brown Swiss cows were assigned randomly (blocking for lactation number and breed) to either a control or treatment group. Four of the Holsteins and two of the Brown Swiss were in their first lactation and all cows were between 134-283 days into lactation (mid-lactation). Cows were milked twice daily (2:30 a.m. and 2:00 p.m.).
Cows were fed ad libitum a total mixed ration twice daily (7:30 a.m. and 5:30 p.m.) with feed refusals collected before the morning feeding. The diet consisted of 31% chopped alfalfa hay, 18% corn silage, and […] (as a % of the dry matter). The grain mix was calculated to contain 1.55 Mcal NE/kg dry matter and 16% crude protein. A major portion of the grain protein was from expeller processed soybean meal with higher than usual bypass characteristics. The cows were consuming protein in excess of their normal requirements. The grain ration contained an estimated 10% leucine (total protein basis), and the complete diet contained an estimated 9% leucine (total protein basis).
During the treatment period half the cows received Na-KIC at 0.75% of the diet dry matter. KIC was fed in a mixture which consisted of Na-KIC, corn gluten meal, hydrogenated soy oil and paraffin in a ratio of 2:1.0:0.1:0.1. The mixture was extruded and formed into crumbles. At least part of the KIC may have escaped rumen degradation with this treatment. Additionally, 100 units of tocopherol were added per gram of Na--KIC to prevent oxidation of KIC. Control animals were fed an equivalent amount of the same mixture but without KIC added.
During the first two weeks of the experiment (control period; designated weeks -2 and -1), all cows received the same diet. The trial period extended over the next three weeks (weeks 1, 2, 3) during which cows received either the KIC or control mix top-dressed on their diets twice per day (half the dose in the morning, half in the evening). Throughout the experiment, daily milk yield, milk composition, and feed consumption was measured for each cow. At the end of the control period and at the end of the treatment period, uninary catheters were inserted and total urine and fecal collections were made for 48 hrs. Results of production and nitrogen balance studies were analyzed statistically using each cow as her own control. The trial effect was measured by subtracting the average control period value from the value during the treatment period. ANOVA was used to detect differences between the KIC-fed and control groups.

[3] = Na-KIC 0.75% of diet dry matter, pre 186

CC(C)CC(=O)C(=O)O [KIC, alpha-ketoisocaproate]
Plasma KIC, Change [1]: 56 µM
Plasma leucine, Change [1]: 182 µM
plasma leucine concentration [1]: doubling
Plasma KIC, Post ([1]; 240 min): 102 µM
Plasma leucine, Post ([1]; 240 min): 312 µM
Feces output, Change ([2]; KIC group, control +1): -6 g N/day
Milk output, Change ([2]; KIC group, control +3): +9 g N/day
Urine output, Change ([2]; KIC group, control +15): 0 g N/day
Body storage (N balance), Change ([2]; KIC group, control +18): +26 g N/day
Feed intake, Change ([2]; KIC group, control +37): +28 g N/day
Milk fat yield, Change ([2]; KIC group, control +.00): +.09 kg/day
Milk fat percent, Change ([2]; KIC group, control +.03): +.21%
Milk protein percent, Change ([2]; KIC group, control +.13): +.11%
Milk yield, Change ([2]; KIC group, control -.13): +.97 kg/day
Milk protein percent, Post ([2]; Na-KIC 0.75% of diet dry matter, pre 3.35): 3.46%
Milk fat percent, Post ([2]; Na-KIC 0.75% of diet dry matter, pre 4.07): 4.27%
Milk yield, Post ([2]; Na-KIC 0.75% of diet dry matter, pre 23.0): 23.9 kg/day
Body storage (N balance), Post ([2]; Na-KIC 0.75% of diet dry matter, pre 34): 60 g N/day
Milk output, Post ([2]; Na-KIC 0.75% of diet dry matter, pre 131): 140 g N/day
Feces output, Post [2, 3]: 180 g N/day
Urine output, Post [2, 3]: 186 g N/day
Feed intake, Post ([2]; Na-KIC 0.75% of diet dry matter, pre 538): 566 g N/day
Milk fat yield, Post ([2]; Na-KIC 0.75% of diet dry matter, pre printed 92): 1.00 kg/day
milk fat yield increase ([2]; above controls, p<0.02): 10%
higher milk yields ([2]; vs control cows): +5%
higher percent milk fat ([2]; vs control cows, p<0.04): +4%
Body storage (N balance), % Change ([2]; vs control, NS): +24%
Body storage (N balance), KIC effect ([2]; vs control, NS): +8 g N/day
Feces output, % Change ([2]; vs control, NS): -4%
Feces output, KIC effect ([2]; vs control, NS): -8 g N/day
Feed intake, % Change ([2]; vs control, NS): -2%
Feed intake, KIC effect ([2]; vs control, NS): -9 g N/day
Milk output, % Change ([2]; vs control, NS): +5%
Milk output, KIC effect ([2]; vs control, NS): +6 g N/day
Milk protein percent, KIC effect ([2]; vs control, NS): -.03%
Urine output, % Change ([2]; vs control, NS): -85
Urine output, KIC effect ([2]; vs control, NS): -15 g N/day
Milk fat yield, % Change ([2]; vs control, p < .01): +10.4%
Milk fat yield, KIC effect ([2]; vs control, p < .01): +.09 kg/day
Milk fat percent, % Change ([2]; vs control, p < .04): +4.3%
Milk fat percent, KIC effect ([2]; vs control, p < .04): +.17%
Milk yield, % Change ([2]; vs control, p < .15): +5.1%
Milk yield, KIC effect ([2]; vs control, p < .15): +1.10 kg/day
